Assays:
[1] = target: Serine/threonine-protein kinase WNK2 (Homo sapiens) (UniProt Q9Y3S1); assay: Inhibition of WNK2 (unknown origin) assessed as residual activity at 1000 nM by KINOMEscan analysis relative to control
[2] = target: Phosphatidylinositol 3-kinase catalytic subunit type 3 (Homo sapiens) (UniProt Q8NEB9); assay: Inhibition of VPS34 (unknown origin) assessed as residual activity at 1000 nM by KINOMEscan analysis relative to control
[3] = target: Myosin light chain kinase, smooth muscle (Homo sapiens) (UniProt Q15746); assay: Inhibition of MYLK (unknown origin) assessed as residual activity at 100 nM by KINOMEscan analysis relative to control
[4] = organism: Homo sapiens; assay: Inhibition of C-terminal RPS6KA4 kinetic domain 2 (unknown origin) assessed as residual activity at 100 nM by KINOMEscan analysis relative to control
[5] = target: T1, Atypical kinase COQ8B, mitochondrial (Homo sapiens) (UniProt Q96D53); assay: Inhibition of ADCK4 (unknown origin) assessed as residual activity at 100 nM by KINOMEscan analysis relative to control
T1 sequence (whole entry): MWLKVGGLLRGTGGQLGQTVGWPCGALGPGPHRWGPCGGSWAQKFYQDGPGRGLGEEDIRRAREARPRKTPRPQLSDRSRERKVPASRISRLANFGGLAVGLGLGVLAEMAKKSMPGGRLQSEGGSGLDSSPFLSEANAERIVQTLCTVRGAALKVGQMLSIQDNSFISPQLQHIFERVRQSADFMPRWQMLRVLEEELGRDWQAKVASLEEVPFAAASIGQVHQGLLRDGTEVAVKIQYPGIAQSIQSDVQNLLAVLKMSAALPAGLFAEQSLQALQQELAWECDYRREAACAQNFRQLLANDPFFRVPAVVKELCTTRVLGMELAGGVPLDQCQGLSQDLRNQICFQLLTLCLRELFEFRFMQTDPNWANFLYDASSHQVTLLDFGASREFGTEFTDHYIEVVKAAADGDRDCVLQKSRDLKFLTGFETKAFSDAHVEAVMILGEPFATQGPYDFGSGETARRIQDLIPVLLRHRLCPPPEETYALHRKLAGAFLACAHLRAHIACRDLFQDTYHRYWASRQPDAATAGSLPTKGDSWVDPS

[6] = system: Epidermal growth factor receptor (Homo sapiens), P00533 [UNDEFINED MUTATION]; assay: Inhibition of EGFR L747-E749del/A750P mutant (unknown origin) assessed as residual activity at 100 nM by KINOMEscan analysis relative to control
[7] = target: T2, Serine/threonine-protein kinase 17A (Homo sapiens) (UniProt Q9UEE5); assay: Inhibition of DRAK1 (unknown origin) assessed as residual activity at 100 nM by KINOMEscan analysis relative to control
T2 sequence (whole entry): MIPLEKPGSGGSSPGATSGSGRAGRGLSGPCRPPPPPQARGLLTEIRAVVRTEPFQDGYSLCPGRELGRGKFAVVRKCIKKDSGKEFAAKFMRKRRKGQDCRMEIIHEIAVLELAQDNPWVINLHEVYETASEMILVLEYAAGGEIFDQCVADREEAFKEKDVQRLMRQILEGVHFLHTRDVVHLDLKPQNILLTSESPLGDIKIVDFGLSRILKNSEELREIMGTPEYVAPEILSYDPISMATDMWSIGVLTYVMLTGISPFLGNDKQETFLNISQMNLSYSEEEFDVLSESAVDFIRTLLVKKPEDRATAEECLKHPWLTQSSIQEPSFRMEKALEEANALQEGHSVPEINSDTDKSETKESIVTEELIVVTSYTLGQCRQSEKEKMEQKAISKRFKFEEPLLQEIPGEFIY

[8] = target: Serine/threonine-protein kinase PAK 3 (Homo sapiens) (UniProt O75914); assay: Inhibition of PAK3 (unknown origin) assessed as residual activity at 100 nM by KINOMEscan analysis relative to control
[9] = target: LIM domain kinase 2 (Homo sapiens) (UniProt P53671); assay: Inhibition of LIMK2 (unknown origin) assessed as residual activity at 100 nM by KINOMEscan analysis relative to control
[10] = target: T3, Serine/threonine-protein kinase D2 (Homo sapiens) (UniProt Q9BZL6); assay: Inhibition of PRKD2 (unknown origin) assessed as residual activity at 100 nM by KINOMEscan analysis relative to control
T3 sequence (whole entry): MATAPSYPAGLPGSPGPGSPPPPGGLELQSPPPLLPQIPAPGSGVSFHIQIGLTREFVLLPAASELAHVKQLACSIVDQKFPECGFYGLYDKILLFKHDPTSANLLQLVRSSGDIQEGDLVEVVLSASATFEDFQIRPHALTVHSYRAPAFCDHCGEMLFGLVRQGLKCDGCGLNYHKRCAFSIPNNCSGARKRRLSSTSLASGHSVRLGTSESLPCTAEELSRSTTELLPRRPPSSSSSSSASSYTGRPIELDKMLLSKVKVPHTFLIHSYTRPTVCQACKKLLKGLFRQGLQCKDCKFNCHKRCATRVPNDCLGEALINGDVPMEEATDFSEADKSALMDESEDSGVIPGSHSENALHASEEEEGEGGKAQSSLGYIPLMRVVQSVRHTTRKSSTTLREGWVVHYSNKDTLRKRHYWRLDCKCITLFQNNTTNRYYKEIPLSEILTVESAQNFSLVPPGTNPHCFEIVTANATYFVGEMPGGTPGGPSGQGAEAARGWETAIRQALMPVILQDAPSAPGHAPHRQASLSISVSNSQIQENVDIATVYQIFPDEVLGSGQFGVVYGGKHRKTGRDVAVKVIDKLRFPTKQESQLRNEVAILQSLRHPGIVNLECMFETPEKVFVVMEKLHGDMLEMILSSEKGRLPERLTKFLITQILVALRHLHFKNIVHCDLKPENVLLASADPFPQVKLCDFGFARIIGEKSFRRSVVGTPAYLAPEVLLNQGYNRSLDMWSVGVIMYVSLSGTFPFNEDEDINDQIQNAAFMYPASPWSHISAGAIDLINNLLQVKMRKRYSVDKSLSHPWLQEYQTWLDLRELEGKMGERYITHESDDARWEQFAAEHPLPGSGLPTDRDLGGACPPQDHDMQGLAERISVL

[11] = target: Platelet-derived growth factor receptor beta (Homo sapiens) (UniProt P09619); assay: Inhibition of PDGFRB (unknown origin) assessed as residual activity at 100 nM by KINOMEscan analysis relative to control
[12] = target: Receptor tyrosine-protein kinase erbB-4 (Homo sapiens) (UniProt Q15303); assay: Inhibition of ERBB4 (unknown origin) assessed as residual activity at 100 nM by KINOMEscan analysis relative to control
[13] = system: Fibroblast growth factor receptor 3 (Homo sapiens), P22607 [G697C]; assay: Inhibition of FGFR3 G697C mutant (unknown origin) assessed as residual activity at 100 nM by KINOMEscan analysis relative to control
[14] = target: Cyclin-dependent kinase 18 (Homo sapiens) (UniProt Q07002); assay: Inhibition of PCTK3 (unknown origin) assessed as residual activity at 100 nM by KINOMEscan analysis relative to control

Chain of Myosin light chain kinase, smooth muscle (Homo sapiens) (Q15746 whole entry, the tested form may be a part): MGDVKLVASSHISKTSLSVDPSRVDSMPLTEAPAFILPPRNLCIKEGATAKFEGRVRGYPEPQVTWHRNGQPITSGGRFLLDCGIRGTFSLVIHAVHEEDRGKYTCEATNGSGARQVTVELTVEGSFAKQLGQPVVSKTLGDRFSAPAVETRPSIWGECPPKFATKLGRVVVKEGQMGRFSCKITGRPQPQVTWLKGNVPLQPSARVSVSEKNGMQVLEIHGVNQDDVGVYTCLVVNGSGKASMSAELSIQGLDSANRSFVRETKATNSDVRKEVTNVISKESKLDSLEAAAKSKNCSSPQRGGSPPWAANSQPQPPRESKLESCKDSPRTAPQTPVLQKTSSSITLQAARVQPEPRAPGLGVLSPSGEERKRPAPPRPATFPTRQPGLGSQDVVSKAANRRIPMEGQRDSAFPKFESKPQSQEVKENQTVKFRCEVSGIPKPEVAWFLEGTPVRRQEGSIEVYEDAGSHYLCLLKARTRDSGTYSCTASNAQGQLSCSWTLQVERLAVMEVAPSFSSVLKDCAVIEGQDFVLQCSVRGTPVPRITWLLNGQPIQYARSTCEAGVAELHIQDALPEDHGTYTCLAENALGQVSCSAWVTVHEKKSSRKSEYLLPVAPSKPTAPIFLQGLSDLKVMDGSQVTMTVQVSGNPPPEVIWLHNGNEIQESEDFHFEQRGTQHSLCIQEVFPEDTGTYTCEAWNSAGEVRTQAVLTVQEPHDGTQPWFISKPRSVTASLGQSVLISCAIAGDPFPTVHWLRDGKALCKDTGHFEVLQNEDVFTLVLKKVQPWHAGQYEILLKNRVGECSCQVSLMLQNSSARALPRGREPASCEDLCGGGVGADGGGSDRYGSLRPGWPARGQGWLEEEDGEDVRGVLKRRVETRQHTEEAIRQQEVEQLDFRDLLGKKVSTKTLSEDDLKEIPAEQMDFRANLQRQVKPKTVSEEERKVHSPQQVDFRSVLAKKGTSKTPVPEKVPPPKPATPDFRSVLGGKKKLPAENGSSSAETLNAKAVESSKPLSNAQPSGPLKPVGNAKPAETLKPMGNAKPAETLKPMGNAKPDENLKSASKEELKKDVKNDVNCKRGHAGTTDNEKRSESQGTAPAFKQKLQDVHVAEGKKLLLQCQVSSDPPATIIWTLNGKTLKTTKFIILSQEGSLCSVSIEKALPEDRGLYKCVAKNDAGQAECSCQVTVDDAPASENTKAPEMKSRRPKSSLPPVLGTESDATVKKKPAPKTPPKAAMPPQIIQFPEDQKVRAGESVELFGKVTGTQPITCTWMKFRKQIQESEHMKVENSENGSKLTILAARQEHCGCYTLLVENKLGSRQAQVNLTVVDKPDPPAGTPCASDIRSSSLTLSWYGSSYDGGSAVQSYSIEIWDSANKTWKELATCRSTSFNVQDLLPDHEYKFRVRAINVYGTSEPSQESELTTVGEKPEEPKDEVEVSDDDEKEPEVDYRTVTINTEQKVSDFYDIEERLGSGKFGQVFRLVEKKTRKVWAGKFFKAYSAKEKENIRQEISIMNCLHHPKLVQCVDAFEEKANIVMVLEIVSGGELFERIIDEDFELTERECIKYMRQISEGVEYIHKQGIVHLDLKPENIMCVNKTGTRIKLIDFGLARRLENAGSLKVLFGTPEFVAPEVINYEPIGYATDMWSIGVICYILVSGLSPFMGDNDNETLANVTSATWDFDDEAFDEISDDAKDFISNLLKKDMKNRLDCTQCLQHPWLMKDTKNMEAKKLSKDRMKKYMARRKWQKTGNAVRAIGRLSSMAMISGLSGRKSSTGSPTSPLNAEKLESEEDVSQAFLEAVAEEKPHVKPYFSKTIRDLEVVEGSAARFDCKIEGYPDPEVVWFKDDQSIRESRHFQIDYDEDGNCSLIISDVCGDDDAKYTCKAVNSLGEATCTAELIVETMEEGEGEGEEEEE
Chain of Epidermal growth factor receptor (Homo sapiens), P00533 [UNDEFINED MUTATION] (P00533 whole entry, looked up, stated change not applied): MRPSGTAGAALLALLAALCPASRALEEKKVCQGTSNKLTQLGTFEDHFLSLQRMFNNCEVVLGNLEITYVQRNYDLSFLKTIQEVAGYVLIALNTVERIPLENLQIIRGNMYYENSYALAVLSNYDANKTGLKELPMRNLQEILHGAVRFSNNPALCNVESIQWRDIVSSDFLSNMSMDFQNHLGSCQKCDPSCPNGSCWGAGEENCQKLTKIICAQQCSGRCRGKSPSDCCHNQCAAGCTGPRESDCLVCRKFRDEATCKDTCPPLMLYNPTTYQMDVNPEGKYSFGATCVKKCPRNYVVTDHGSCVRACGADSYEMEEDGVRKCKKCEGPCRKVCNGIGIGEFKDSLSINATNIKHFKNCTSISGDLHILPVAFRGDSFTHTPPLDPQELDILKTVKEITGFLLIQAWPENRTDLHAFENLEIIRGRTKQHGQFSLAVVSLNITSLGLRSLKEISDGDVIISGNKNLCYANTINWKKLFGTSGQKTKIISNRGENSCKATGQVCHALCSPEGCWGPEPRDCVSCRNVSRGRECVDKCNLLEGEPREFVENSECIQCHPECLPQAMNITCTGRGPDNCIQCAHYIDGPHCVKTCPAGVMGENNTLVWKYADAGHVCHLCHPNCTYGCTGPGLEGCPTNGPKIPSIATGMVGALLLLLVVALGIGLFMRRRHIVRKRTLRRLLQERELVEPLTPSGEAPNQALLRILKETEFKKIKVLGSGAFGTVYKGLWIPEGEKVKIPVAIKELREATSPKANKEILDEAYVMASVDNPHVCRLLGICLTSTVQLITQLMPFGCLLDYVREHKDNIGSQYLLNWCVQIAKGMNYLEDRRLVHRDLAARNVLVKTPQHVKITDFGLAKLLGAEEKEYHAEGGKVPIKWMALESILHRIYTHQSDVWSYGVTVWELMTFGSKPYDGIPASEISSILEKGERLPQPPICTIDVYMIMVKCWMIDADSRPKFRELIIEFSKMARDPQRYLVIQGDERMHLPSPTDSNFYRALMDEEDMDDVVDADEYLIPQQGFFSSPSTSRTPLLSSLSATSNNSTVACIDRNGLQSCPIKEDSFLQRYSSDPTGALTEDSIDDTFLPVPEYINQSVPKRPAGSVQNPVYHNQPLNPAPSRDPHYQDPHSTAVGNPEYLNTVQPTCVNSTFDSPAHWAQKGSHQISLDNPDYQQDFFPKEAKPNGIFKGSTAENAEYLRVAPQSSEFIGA
Chain of Serine/threonine-protein kinase PAK 3 (Homo sapiens) (O75914 whole entry, looked up, the tested form may be a part): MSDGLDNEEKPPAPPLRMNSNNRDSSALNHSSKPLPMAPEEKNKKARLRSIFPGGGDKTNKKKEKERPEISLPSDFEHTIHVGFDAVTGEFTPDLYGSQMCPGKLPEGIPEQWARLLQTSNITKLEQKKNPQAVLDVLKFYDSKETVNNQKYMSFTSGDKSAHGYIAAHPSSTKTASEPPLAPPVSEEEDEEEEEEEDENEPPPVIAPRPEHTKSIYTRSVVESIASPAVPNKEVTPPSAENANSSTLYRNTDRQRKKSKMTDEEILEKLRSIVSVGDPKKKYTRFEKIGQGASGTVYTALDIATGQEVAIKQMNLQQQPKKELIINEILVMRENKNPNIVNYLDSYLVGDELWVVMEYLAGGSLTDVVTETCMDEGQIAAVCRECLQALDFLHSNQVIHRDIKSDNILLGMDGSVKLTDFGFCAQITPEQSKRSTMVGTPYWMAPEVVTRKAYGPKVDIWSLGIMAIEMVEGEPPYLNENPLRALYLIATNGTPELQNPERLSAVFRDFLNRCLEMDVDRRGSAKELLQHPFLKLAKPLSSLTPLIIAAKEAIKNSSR
Chain of Receptor tyrosine-protein kinase erbB-4 (Homo sapiens) (Q15303 whole entry): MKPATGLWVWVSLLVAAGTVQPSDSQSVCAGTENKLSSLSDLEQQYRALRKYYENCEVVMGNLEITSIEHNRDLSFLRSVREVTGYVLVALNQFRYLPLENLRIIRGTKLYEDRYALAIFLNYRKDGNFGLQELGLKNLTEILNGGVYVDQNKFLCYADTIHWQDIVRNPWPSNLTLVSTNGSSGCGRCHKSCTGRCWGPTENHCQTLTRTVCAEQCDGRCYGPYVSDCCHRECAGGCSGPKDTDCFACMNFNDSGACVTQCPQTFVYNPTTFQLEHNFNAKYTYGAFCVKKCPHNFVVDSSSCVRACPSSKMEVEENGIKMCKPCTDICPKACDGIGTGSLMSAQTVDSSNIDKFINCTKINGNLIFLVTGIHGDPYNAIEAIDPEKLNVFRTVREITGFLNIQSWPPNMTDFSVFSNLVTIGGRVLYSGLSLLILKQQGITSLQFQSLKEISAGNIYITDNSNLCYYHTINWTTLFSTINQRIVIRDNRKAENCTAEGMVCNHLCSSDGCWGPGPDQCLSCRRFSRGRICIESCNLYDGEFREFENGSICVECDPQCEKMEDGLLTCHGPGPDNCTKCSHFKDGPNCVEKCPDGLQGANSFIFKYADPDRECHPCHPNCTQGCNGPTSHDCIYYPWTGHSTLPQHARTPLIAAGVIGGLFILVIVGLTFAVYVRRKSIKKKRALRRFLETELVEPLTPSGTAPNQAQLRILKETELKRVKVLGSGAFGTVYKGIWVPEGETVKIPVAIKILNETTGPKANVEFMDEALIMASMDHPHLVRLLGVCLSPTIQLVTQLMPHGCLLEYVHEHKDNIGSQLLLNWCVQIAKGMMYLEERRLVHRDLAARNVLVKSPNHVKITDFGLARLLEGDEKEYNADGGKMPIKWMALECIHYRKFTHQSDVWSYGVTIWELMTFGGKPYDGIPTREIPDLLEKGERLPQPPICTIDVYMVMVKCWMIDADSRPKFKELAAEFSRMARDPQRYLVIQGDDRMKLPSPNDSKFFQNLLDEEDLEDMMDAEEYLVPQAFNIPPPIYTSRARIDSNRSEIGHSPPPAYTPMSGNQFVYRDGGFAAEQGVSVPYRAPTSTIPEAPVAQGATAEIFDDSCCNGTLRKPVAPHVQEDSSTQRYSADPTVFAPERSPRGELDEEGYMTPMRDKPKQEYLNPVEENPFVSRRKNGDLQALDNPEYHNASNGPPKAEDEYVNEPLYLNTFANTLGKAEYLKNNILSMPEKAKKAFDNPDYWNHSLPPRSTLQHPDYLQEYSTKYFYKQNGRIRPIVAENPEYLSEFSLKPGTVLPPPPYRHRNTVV

Row | Structure (SMILES) | Activity [1] [%] | Activity [2] [%] | Activity [3] [%] | Activity [4] [%] | Activity [5] [%] | Activity [6] [%] | Activity [7] [%] | Activity [8] [%] | Activity [9] [%] | Activity [10] [%] | Activity [11] [%] | Activity [12] [%] | Activity [13] [%] | Activity [14] [%]
1 | COc1cc2nc(C)nc(N[C@H](C)c3cccc(-c4cn[nH]c4)c3)c2cc1OC | 100 | 100 | – | – | – | – | – | – | – | – | – | – | – | –
2 | COc1cc2ncnc(N[C@H](C)c3cccc4ccccc34)c2cc1OC | – | – | 69 | 87 | 61 | 92 | 100 | 74 | 28 | 80 | 100 | 100 | 66 | 76
